Experimental data taken from ChEMBL document CHEMBL1134574, “Synthesis and characterization of non-steroidal ligands for the glucocorticoid receptor: selective quinoline derivatives with prednisolone-equivalent functional activity” (J Med Chem, 2001).

Key:
[1] = molecular target: T1, Mineralocorticoid receptor (Homo sapiens, UniProt P08235); test: Binding affinity for mineralocorticoid receptor
T1 sequence (P08235 whole entry): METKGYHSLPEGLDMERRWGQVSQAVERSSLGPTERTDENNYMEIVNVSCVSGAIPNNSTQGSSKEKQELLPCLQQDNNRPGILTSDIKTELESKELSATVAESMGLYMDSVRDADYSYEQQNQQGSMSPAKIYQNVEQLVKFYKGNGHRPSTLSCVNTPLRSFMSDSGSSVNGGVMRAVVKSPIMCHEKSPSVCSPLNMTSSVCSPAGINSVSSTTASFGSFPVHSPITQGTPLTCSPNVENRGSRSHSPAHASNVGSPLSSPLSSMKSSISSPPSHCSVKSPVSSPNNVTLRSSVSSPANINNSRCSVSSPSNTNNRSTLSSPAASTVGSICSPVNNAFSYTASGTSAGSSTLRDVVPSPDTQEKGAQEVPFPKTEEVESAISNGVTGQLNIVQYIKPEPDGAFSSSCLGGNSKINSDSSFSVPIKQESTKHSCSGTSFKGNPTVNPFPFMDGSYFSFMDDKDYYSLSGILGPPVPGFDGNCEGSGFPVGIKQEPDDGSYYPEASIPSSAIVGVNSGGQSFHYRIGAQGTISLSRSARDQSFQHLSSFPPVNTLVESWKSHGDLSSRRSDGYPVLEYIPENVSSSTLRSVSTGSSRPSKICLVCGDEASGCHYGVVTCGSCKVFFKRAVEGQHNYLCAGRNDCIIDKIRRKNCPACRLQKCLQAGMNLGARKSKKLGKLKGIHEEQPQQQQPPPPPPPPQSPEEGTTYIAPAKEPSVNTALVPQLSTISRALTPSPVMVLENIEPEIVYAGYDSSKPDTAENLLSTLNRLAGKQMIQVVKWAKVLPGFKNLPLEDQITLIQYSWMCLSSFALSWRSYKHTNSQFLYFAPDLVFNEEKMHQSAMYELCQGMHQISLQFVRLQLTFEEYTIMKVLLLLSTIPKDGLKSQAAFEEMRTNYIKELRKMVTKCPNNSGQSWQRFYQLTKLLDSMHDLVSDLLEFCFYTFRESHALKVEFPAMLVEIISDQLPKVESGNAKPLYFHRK

Glucocorticoid receptor [2] = molecular target: T2, Glucocorticoid receptor (Homo sapiens, UniProt P04150); test: Binding affinity for glucocorticoid receptor
T2 sequence (P04150 whole entry): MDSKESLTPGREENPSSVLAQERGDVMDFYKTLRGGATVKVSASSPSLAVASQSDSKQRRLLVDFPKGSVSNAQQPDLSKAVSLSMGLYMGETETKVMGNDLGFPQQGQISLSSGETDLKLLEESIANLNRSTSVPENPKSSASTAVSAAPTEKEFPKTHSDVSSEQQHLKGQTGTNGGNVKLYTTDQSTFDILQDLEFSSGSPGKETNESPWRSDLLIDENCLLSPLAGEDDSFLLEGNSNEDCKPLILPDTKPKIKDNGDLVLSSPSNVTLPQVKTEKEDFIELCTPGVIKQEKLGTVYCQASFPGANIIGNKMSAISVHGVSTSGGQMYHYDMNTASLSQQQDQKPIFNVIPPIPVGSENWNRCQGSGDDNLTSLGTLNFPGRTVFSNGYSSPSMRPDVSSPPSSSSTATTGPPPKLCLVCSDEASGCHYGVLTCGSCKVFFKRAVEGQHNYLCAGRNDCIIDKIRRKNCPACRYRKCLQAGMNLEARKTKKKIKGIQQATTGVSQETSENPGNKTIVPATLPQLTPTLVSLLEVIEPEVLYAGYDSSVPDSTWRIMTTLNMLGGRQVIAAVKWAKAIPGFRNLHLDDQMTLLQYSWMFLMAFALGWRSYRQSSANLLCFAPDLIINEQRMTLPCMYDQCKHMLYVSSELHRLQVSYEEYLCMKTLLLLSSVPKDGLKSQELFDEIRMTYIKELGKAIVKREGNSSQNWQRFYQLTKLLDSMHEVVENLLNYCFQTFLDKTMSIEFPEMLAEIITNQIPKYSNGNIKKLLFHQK

Androgen receptor = molecular target: T3, Androgen receptor (Homo sapiens, UniProt P10275); test: Binding affinity for androgen receptor
T3 sequence (P10275 whole entry): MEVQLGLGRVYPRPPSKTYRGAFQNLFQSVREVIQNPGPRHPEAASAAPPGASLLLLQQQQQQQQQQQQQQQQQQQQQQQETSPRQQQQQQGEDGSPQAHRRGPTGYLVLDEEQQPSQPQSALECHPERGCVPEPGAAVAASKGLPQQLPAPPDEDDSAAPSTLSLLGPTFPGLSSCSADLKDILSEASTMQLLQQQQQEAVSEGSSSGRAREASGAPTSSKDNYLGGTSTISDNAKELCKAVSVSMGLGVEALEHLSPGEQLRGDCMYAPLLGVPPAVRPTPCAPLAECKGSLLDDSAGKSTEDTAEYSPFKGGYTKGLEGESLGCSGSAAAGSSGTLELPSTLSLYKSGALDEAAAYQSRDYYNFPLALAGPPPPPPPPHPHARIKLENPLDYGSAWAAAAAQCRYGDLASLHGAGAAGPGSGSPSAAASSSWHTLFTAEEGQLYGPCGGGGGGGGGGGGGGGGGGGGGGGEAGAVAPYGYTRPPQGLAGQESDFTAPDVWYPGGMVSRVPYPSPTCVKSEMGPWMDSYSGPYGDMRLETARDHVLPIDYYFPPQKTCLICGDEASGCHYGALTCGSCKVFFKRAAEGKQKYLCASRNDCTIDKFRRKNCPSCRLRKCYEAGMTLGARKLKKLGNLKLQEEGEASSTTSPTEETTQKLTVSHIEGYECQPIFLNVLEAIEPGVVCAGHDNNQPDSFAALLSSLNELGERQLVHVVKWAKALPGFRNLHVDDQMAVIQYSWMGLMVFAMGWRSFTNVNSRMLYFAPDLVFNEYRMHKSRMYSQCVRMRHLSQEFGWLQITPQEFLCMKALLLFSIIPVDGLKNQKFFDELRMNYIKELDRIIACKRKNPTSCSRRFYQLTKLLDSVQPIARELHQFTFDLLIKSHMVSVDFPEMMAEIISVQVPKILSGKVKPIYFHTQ

Glucocorticoid receptor [3] = molecular target: T2, Glucocorticoid receptor; test: Transcriptional repression activity in HEP G2 cells expressing glucocorticoid receptor compared to Dexamethasone; format: functional, cell-based, HepG2
Glucocorticoid receptor [4] = molecular target: T2, Glucocorticoid receptor; test: Glucocorticoid-induced aromatase activity in human skin fibroblasts; format: functional
Estrogen receptor = Estrogen receptor (Homo sapiens, UniProt Q92731+P03372); test: Binding affinity for estrogen receptor; format: protein assay
Glucocorticoid receptor [5] = molecular target: T2, Glucocorticoid receptor; test: Repression activity of GR ligand with interleukin-6 receptor in native cell assay using Dexamethasone was determined as maximal potency; format: functional

Ki [1]: 3840 nM
Ki (Glucocorticoid receptor [2]): 4 nM
Ki (Androgen receptor): 3120 nM
IC50 (Glucocorticoid receptor [3]): 4 nM
IC50 (Glucocorticoid receptor [4]): 140 nM
Ki (Estrogen receptor): > 1000 nM
IC50 (Glucocorticoid receptor [5]): 16 nM
Compound: COc1cccc2c1-c1ccc3c(c1C(c1cccc(OCSC)c1)O2)C(C)=CC(C)(C)N3 (configuration not stated)
